The results in this text go back to the supplement of paper PMC12137928.

This assay deals with HCT116. The note with it: 72 h. Summed up: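 Luminescence was read with CellTiter-Glo in HCT116 cells seeded at 250 per well in 1536-well plates. Signals were scaled between vehicle at 0% and positive control at -100%, then pattern-corrected. IC50 and maximal efficacy were obtained by fitting a four-parameter Hill equation.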

Counter-ions that a name gives are not always drawn.

As to `N=C(N)NC(=O)Cc1c(Cl)cccc1Cl` [Guanfacine hydrochloride], the IC50 cell viability is greater than 45.8 µM (ICRF193 0 nM) and greater than 45.8 µM (ICRF193 200 nM).
In the case of `CCCCNC(=O)NS(=O)(=O)c1ccc(C)cc1` [Tolbutamide], the IC50 cell viability was greater than 45.8 µM (ICRF193 0 nM) and greater than 45.8 µM (ICRF193 200 nM).
As to `NC(=O)c1ncn([C@@H]2O[C@H](CO)[C@@H](O)[C@H]2O)c1N` [Acadesine], the IC50 cell viability by setting is: (ICRF193 0 nM) greater than 45.8 µM; (ICRF193 200 nM) greater than 45.8 µM.
For the molecule `Cl.NCCCC[C@H](N)C(=O)O` [L-(+)-Lysine monohydrochloride], the IC50 cell viability runs as follows: (ICRF193 0 nM) greater than 45.8 µM; (ICRF193 200 nM) greater than 45.8 µM.
`Cc1ccc(O)c([C@H](CCN(C(C)C)C(C)C)c2ccccc2)c1` [Tolterodine]: the IC50 cell viability was greater than 45.8 µM (ICRF193 0 nM) and greater than 45.8 µM (ICRF193 200 nM).
For `Cc1cccc(Nc2ccccc2C(=O)O)c1C` [Mefenamic acid], the IC50 cell viability reads like this: (ICRF193 0 nM) greater than 45.8 µM; (ICRF193 200 nM) greater than 45.8 µM.
With `COc1ccc(-c2cc(C(F)F)nn2-c2ccc(S(N)(=O)=O)cc2)cc1F` [Deracoxib], the IC50 cell viability by setting is: (ICRF193 0 nM) greater than 45.8 µM; (ICRF193 200 nM) greater than 45.8 µM.
`Cn1ccnc1S` [Methimazole]: the IC50 cell viability was greater than 45.8 µM (ICRF193 0 nM) and greater than 45.8 µM (ICRF193 200 nM).
Consider `CCOc1ccc(Cc2cc([C@]34OC[C@](CO)(O3)[C@@H](O)[C@H](O)[C@H]4O)ccc2Cl)cc1`, for which the IC50 cell viability is, setting by setting: (ICRF193 0 nM) greater than 45.8 µM; (ICRF193 200 nM) greater than 45.8 µM.
Take `CC(=C(CCOC(=O)C(C)C)SSC(CCOC(=O)C(C)C)=C(C)N(C=O)Cc1cnc(C)nc1N)N(C=O)Cc1cnc(C)nc1N` [Bisibutiamine]: the IC50 cell viability was greater than 45.8 µM (ICRF193 0 nM) and greater than 45.8 µM (ICRF193 200 nM).
For the molecule `CO[C@@]12[C@H](COC(N)=O)C3=C(C(=O)C(C)=C(N)C3=O)N1C[C@@H]1N[C@@H]12` [Mitomycin C], the IC50 cell viability by setting is: (ICRF193 0 nM) greater than 45.8 µM; (ICRF193 200 nM) greater than 45.8 µM.
Turning to `COCCOc1cnc(NS(=O)(=O)c2ccccc2)nc1` [Glymidine sodium], the IC50 cell viability (ICRF193 0 nM) is greater than 45.8 µM and the IC50 cell viability (ICRF193 200 nM) was greater than 45.8 µM.
Turning to `O=C1CN2Cc3c(ccc(Cl)c3Cl)N=C2N1` [Anagrelide hydrochloride], the IC50 cell viability runs as follows: (ICRF193 0 nM) greater than 45.8 µM; (ICRF193 200 nM) greater than 45.8 µM.
As for `O=C(O)CC/C=C\CC[C@@H]1[C@@H](N2CCCCC2)[C@@H](O)C[C@@H]1OCc1ccc(-c2ccccc2)cc1` [Vapiprost hydrochloride], the IC50 cell viability reads like this: (ICRF193 0 nM) greater than 45.8 µM; (ICRF193 200 nM) greater than 45.8 µM.
Turning to `CC(C)[C@@H]1CC[C@@H](C)CC1=O` [(2S,5R)-5-Methyl-2-(propan-2-yl)cyclohexanone], the IC50 cell viability was greater than 45.8 µM (ICRF193 0 nM) and greater than 45.8 µM (ICRF193 200 nM).
In the case of `Nc1nc(=O)[nH]cc1F` [Flucytosine], the IC50 cell viability runs as follows: (ICRF193 0 nM) greater than 45.8 µM; (ICRF193 200 nM) greater than 45.8 µM.
On to `C=CCN.ClCC1CO1` (stereo unspecified) [Sevelamer Hydrochloride (Technical Grade)], for which the IC50 cell viability runs as follows: (ICRF193 0 nM) greater than 45.8 µM; (ICRF193 200 nM) greater than 45.8 µM.
On to `CCCNCC(O)COc1ccccc1C(=O)CCc1ccccc1` (stereo unspecified) [Propafenone hydrochloride], for which the IC50 cell viability reads like this: (ICRF193 0 nM) greater than 45.8 µM; (ICRF193 200 nM) greater than 45.8 µM.
Take `C=CCc1ccccc1OCC(O)CNC(C)C` (stereo unspecified) [Alprenolol]: the IC50 cell viability was greater than 45.8 µM (ICRF193 0 nM) and greater than 45.8 µM (ICRF193 200 nM).
On to `CCOCCn1c(C2CCN(CCc3ccc(C(C)(C)C(=O)O)cc3)CC2)nc2ccccc21` [Bilastine], for which the IC50 cell viability runs as follows: (ICRF193 0 nM) greater than 45.8 µM; (ICRF193 200 nM) greater than 45.8 µM.
Regarding `N[C@@H](C(=O)N[C@@H]1C(=O)N2C(C(=O)O)=C(Cl)CC[C@H]12)c1ccccc1` [Loracarbef], the IC50 cell viability is greater than 45.8 µM (ICRF193 0 nM) and greater than 45.8 µM (ICRF193 200 nM).
Take `CC#C[C@]1(O)CC[C@H]2[C@@H]3CCC4=CC(=O)CCC4=C3[C@@H](c3ccc(N(C)C)cc3)C[C@@]21C` [Mifepristone]: the IC50 cell viability was greater than 45.8 µM (ICRF193 0 nM) and greater than 45.8 µM (ICRF193 200 nM).
`CCOC(=O)[C@H](CCc1ccccc1)N[C@@H](C)C(=O)N(CC(=O)O)C1Cc2ccccc2C1` [Delapril hydrochloride]: the IC50 cell viability was greater than 45.8 µM (ICRF193 0 nM) and greater than 45.8 µM (ICRF193 200 nM).
Consider `C#CC(O)(/C=C/Cl)CC` (stereo unspecified) [Ethchlorvynol], for which the IC50 cell viability (ICRF193 0 nM) was greater than 45.8 µM and the IC50 cell viability (ICRF193 200 nM) was greater than 45.8 µM.
For `Cn1c(=O)cc(N2CCC[C@@H](N)C2)n(Cc2ccccc2C#N)c1=O` [ALOGLIPTIN BENZOATE], the IC50 cell viability reads like this: (ICRF193 0 nM) greater than 45.8 µM; (ICRF193 200 nM) greater than 45.8 µM.
Consider `CC1(C)O[C@@H]2C[C@H]3[C@@H]4CCC5=CC(=O)CC[C@]5(C)[C@@]4(F)[C@@H](O)C[C@]3(C)[C@]2(C(=O)CCl)O1` [Halcinonide], for which the IC50 cell viability is, setting by setting: (ICRF193 0 nM) greater than 45.8 µM; (ICRF193 200 nM) greater than 45.8 µM.
As for `CC(=O)NCc1c(I)c(NC(C)=O)c(I)c(C(=O)O)c1I` [Iodamide], the IC50 cell viability reads like this: (ICRF193 0 nM) greater than 45.8 µM; (ICRF193 200 nM) greater than 45.8 µM.
As to `CC(C)=CCC/C(C)=C/CO` [Geraniol], the IC50 cell viability is, setting by setting: (ICRF193 0 nM) greater than 45.8 µM; (ICRF193 200 nM) greater than 45.8 µM.
Regarding `CC(=O)Nc1nnc(S(N)(=O)=O)s1` [Acetazolamide], the IC50 cell viability by setting is: (ICRF193 0 nM) greater than 45.8 µM; (ICRF193 200 nM) greater than 45.8 µM.
Take `CCCCCCCCCCCCCCCCCCCCCCO` [Docosanol]: the IC50 cell viability was greater than 45.8 µM (ICRF193 0 nM) and greater than 45.8 µM (ICRF193 200 nM).
For the molecule `CSCCNc1nc(SCCC(F)(F)F)nc2c1ncn2[C@@H]1O[C@H](COP(=O)(O)OP(=O)(O)C(Cl)(Cl)P(=O)(O)O)[C@@H](O)[C@H]1O`, the IC50 cell viability was greater than 45.8 µM (ICRF193 0 nM) and greater than 45.8 µM (ICRF193 200 nM).
On to `O=c1c(O)c(-c2ccc(O)c(O)c2)oc2cc(O)cc(O)c12` [Quercetin], for which the IC50 cell viability was greater than 45.8 µM (ICRF193 0 nM) and greater than 45.8 µM (ICRF193 200 nM).
As for `CCOC(=O)C1=C(C)NC(C)=C(C(=O)OC)C1c1cccc([N+](=O)[O-])c1` (stereo unspecified) [Nitrendipine], the IC50 cell viability (ICRF193 0 nM) is greater than 45.8 µM and the IC50 cell viability (ICRF193 200 nM) was greater than 45.8 µM.
Take `O=C(OCCO)c1ccccc1O` [BETA-HYDROXYETHYL SALICYLATE]: the IC50 cell viability was greater than 45.8 µM (ICRF193 0 nM) and greater than 45.8 µM (ICRF193 200 nM).
Turning to `C=CC[N+]1([C@H]2C[C@H]3[C@@H]4CC[C@H]5C[C@H](OC(C)=O)[C@@H](N6CCCCC6)C[C@]5(C)[C@H]4CC[C@]3(C)[C@H]2OC(=O)CC)CCCCC1` [Rapacuronium bromide], the IC50 cell viability (ICRF193 0 nM) was greater than 45.8 µM and the IC50 cell viability (ICRF193 200 nM) is greater than 45.8 µM.
`COc1ccc(C(=O)Nc2ccccc2CCC2CCCCN2C)cc1` (stereo unspecified) [Encainide hydrochloride] showed an IC50 cell viability (ICRF193 0 nM) greater than 45.8 µM and an IC50 cell viability (ICRF193 200 nM) greater than 45.8 µM.
In the case of `C=CC(N)CCC(=O)O` (stereo unspecified) [Vigabatrin], the IC50 cell viability is greater than 45.8 µM (ICRF193 0 nM) and greater than 45.8 µM (ICRF193 200 nM).
For `NCCCC[C@@H]1NC(=O)[C@@H](Cc2c[nH]c3ccccc23)NC(=O)[C@H](c2ccccc2)NC(=O)[C@@H]2C[C@@H](OC(=O)NCCN)CN2C(=O)[C@H](Cc2ccccc2)NC(=O)[C@H](Cc2ccc(OCc3ccccc3)cc2)NC1=O` [Pasireotide (ditrifluoroacetate)], the IC50 cell viability is, setting by setting: (ICRF193 0 nM) greater than 45.8 µM; (ICRF193 200 nM) greater than 45.8 µM.
For the molecule `c1ccc2sc(SNC3CCCCC3)nc2c1` [N-Cyclohexyl-2-benzothiazolesulfenamide], the IC50 cell viability is, setting by setting: (ICRF193 0 nM) greater than 45.8 µM; (ICRF193 200 nM) greater than 45.8 µM.
Consider `Cn1nnc(-c2ccc(-c3ccc(N4C[C@@H](CO)OC4=O)cc3F)cn2)n1` [(S)-Tedizolid], for which the IC50 cell viability is greater than 45.8 µM (ICRF193 0 nM) and greater than 45.8 µM (ICRF193 200 nM).
Regarding `O=C(NCNC(=O)NC1C(=O)NC(=O)N1CO)NC1C(=O)NC(=O)N1CO` (stereo unspecified) [Imidazolidinyl urea], the IC50 cell viability (ICRF193 0 nM) was greater than 45.8 µM and the IC50 cell viability (ICRF193 200 nM) is greater than 45.8 µM.
In turn, `CCN(CC)CCCC(C)Nc1ccnc2cc(Cl)ccc12` (stereo unspecified) [Chloroquine] yielded an IC50 cell viability (ICRF193 0 nM) greater than 45.8 µM and an IC50 cell viability (ICRF193 200 nM) greater than 45.8 µM.
For the molecule `CC(=O)O[C@H]1CC[C@H]2[C@@H]3CC[C@H]4CC(=O)C=C(C)[C@]4(C)[C@H]3CC[C@]12C` [Methenolone (acetate)], the IC50 cell viability by setting is: (ICRF193 0 nM) greater than 45.8 µM; (ICRF193 200 nM) greater than 45.8 µM.
With `O=C(O)CNC(=O)CNC(=O)CNC(=O)CSC(=O)c1ccccc1` [Betiatide], the IC50 cell viability is, setting by setting: (ICRF193 0 nM) greater than 45.8 µM; (ICRF193 200 nM) greater than 45.8 µM.
As to `CN(CCOc1ccc(NS(C)(=O)=O)cc1)CCc1ccc(NS(C)(=O)=O)cc1` [Dofetilide], the IC50 cell viability is, setting by setting: (ICRF193 0 nM) greater than 45.8 µM; (ICRF193 200 nM) greater than 45.8 µM.
With `COC([CH2][Hg+])CNC(=O)c1ccccc1OCC(=O)O.[OH-]` (stereo unspecified) [Mersalyl acid], the IC50 cell viability runs as follows: (ICRF193 0 nM) greater than 45.8 µM; (ICRF193 200 nM) greater than 45.8 µM.
Turning to `CCC1Nc2cc(Cl)c(S(N)(=O)=O)cc2S(=O)(=O)N1` (stereo unspecified) [Ethiazide], the IC50 cell viability is greater than 45.8 µM (ICRF193 0 nM) and greater than 45.8 µM (ICRF193 200 nM).
In the case of `Cc1ccccc1-n1c(CF)nc2ccc(N)cc2c1=O` [Afloqualone], the IC50 cell viability reads like this: (ICRF193 0 nM) greater than 45.8 µM; (ICRF193 200 nM) greater than 45.8 µM.
As to `CC1CC(OC(=O)C(O)c2ccccc2)CC(C)(C)C1` (stereo unspecified) [Cyclandelate], the IC50 cell viability is, setting by setting: (ICRF193 0 nM) greater than 45.8 µM; (ICRF193 200 nM) greater than 45.8 µM.
For `Cn1c(CCCC(=O)O)nc2cc(N(CCCl)CCCl)ccc21` [Bendamustine], the IC50 cell viability is, setting by setting: (ICRF193 0 nM) greater than 45.8 µM; (ICRF193 200 nM) greater than 45.8 µM.
In the case of `NCCCC[C@H](NC(=O)[C@@H]1CCCN1C(=O)[C@@H]1CSSC[C@H](N)C(=O)N[C@@H](Cc2ccccc2)C(=O)N[C@@H](Cc2ccccc2)C(=O)N[C@@H](CCC(N)=O)C(=O)N[C@@H](CC(N)=O)C(=O)N1)C(=O)NCC(N)=O` [Felypressin], the IC50 cell viability was greater than 45.8 µM (ICRF193 0 nM) and greater than 45.8 µM (ICRF193 200 nM).
Consider `CC(=O)O[C@H]1Cc2ccccc2N(C(N)=O)c2ccccc21` [Eslicarbazepine (acetate)], for which the IC50 cell viability by setting is: (ICRF193 0 nM) greater than 45.8 µM; (ICRF193 200 nM) greater than 45.8 µM.
Take `COP(=S)(OC)SCN1C(=O)c2ccccc2C1=O` [Phosmet]: the IC50 cell viability was greater than 45.8 µM (ICRF193 0 nM) and greater than 45.8 µM (ICRF193 200 nM).
